# Results reported in paper PMC10882719 (Frontiers in Neuroscience, 2024).
# Where two headings read alike, the source gives them in different places.
# Key:
# Assay type in all cases: cell-based
# 168 GPCRs [1] = target: T1, 168 GPCRs (Homo sapiens, UniProt P25090)
# T1 construct: host or cells: PathHunter cell lines
# T1 sequence (P25090 1-351): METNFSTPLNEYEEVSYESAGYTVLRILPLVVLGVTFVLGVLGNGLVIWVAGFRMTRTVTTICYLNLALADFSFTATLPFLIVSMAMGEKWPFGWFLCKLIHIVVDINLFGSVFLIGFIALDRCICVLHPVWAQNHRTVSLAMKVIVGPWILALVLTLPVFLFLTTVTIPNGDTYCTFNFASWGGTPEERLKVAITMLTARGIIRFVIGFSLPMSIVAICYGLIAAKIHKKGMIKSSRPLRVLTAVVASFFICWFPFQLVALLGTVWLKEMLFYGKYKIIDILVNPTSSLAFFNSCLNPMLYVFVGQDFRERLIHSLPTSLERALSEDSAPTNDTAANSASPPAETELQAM
# Method: (§1) Studies were performed at Eurofins DiscoverX Corporation (Fremont, CA) using the GPCRmax assay according to the manufacturer’s protocols. […] Activity greater than 30% typically indicates agonist activity and inhibition greater than 50% indicates antagonist activity. This assay uses enzyme fragment complementation with […] as the functional reporter. When a GPCR is activated, […] is recruited and the reporter is detectable. GPCRmax offers a high-throughput screen of 168 GPCRs for agonist or antagonist activity. Briefly, PathHunter cell lines were propagated, seeded into 384-well microplates and incubated at 37°C. […] Microplates were read following signal generation with a PerkinElmer Envision™ instrument for chemiluminescent signal detection. Compound activity was analyzed using CBIS data analysis suite (ChemInnovation, CA) to determine raw values (RLU). For agonist mode assay, percentage activity was calculated using the following formula: % Activity =100% × (mean RLU of test sample - mean RLU of vehicle control) / (mean MAX control ligand - mean RLU of vehicle control). For antagonist mode assay, percentage inhibition was calculated using the following formula: % Inhibition =100% × (1 - (mean RLU of test sample - mean RLU of vehicle control) / (mean RLU of EC80 control - mean RLU of vehicle control)).
# 168 GPCRs [2] = target: T2, 168 GPCRs (Homo sapiens, UniProt P30988)
# T2 construct: host or cells: PathHunter cell lines
# T2 sequence (P30988 25-474): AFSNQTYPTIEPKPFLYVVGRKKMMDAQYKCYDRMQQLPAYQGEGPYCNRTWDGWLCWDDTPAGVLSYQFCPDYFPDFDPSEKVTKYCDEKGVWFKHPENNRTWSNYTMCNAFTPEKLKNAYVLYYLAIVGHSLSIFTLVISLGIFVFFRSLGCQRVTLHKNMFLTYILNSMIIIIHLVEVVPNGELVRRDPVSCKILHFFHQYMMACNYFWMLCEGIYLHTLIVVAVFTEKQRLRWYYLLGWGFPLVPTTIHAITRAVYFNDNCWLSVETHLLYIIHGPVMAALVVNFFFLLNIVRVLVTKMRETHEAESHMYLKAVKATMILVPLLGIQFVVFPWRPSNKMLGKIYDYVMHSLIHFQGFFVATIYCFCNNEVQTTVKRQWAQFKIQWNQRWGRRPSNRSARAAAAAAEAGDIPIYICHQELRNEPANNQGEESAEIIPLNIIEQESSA
# Method: as §1
# 168 GPCRs [3] = target: T3, 168 GPCRs (Homo sapiens, UniProt P32239); settings: CCKBR
# T3 construct: host or cells: PathHunter cell lines
# T3 sequence (P32239 1-447): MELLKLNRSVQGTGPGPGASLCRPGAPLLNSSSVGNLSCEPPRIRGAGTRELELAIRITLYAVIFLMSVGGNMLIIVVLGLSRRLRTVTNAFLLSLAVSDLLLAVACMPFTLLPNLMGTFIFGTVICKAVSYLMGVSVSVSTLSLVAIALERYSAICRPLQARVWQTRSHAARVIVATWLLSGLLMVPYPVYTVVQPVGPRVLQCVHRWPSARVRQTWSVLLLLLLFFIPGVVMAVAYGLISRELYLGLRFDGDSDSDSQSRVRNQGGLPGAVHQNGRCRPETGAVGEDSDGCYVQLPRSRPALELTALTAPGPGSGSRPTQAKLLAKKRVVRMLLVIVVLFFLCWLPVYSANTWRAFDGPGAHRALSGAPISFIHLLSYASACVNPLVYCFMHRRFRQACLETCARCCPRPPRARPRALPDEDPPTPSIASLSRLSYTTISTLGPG
# Method: as §1
# 168 GPCRs [4] = target: T4, 168 GPCRs (Homo sapiens, UniProt P41231); settings: P2RY2
# T4 construct: host or cells: PathHunter cell lines
# Method: as §1
# 168 GPCRs [5] = target: T5, 168 GPCRs (Homo sapiens, UniProt P46091)
# T5 construct: host or cells: PathHunter cell lines
# T5 sequence (P46091 1-355): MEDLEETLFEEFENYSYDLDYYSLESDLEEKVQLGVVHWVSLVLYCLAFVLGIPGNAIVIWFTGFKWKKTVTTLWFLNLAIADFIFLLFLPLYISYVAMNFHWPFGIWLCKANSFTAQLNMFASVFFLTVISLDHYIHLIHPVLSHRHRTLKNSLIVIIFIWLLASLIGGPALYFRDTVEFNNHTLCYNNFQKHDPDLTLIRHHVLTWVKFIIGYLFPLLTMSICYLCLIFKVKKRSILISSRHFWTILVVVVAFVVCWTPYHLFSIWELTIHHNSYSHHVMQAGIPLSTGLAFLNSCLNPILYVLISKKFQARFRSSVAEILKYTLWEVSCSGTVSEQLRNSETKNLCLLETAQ
# Method: as §1
# T4 sequence (P41231 whole entry): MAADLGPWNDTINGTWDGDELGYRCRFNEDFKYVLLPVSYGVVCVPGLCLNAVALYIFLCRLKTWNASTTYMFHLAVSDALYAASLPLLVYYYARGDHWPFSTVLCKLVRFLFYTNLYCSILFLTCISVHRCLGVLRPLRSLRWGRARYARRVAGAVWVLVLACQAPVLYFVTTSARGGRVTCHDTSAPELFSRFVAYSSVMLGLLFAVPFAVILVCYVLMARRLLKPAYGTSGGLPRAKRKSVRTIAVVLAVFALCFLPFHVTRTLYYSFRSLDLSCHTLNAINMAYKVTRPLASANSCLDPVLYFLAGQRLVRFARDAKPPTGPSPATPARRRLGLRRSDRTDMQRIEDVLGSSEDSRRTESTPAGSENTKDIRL
SMILES,"% Agonist Activity (168 GPCRs [1]; FPRL1, 1 uM) [%]","% Antagonist Activity (168 GPCRs [1]; FPRL1, 1 uM) [%]","% Agonist Activity (168 GPCRs [1]; FPRL1, 10 uM) [%]","% Antagonist Activity (168 GPCRs [1]; FPRL1, 10 uM) [%]","% Agonist Activity (168 GPCRs [2]; CALCR, 1 uM) [%]","% Antagonist Activity (168 GPCRs [2]; CALCR, 1 uM) [%]","% Agonist Activity (168 GPCRs [2]; CALCR, 10 uM) [%]","% Antagonist Activity (168 GPCRs [2]; CALCR, 10 uM) [%]","% Agonist Activity (168 GPCRs [2]; CALCR-RAMP2, 1 uM) [%]","% Antagonist Activity (168 GPCRs [2]; CALCR-RAMP2, 1 uM) [%]","% Agonist Activity (168 GPCRs [2]; CALCR-RAMP2, 10 uM) [%]","% Antagonist Activity (168 GPCRs [2]; CALCR-RAMP2, 10 uM) [%]","% Agonist Activity (168 GPCRs [2]; CALCR-RAMP3, 1 uM) [%]","% Antagonist Activity (168 GPCRs [2]; CALCR-RAMP3, 1 uM) [%]","% Agonist Activity (168 GPCRs [2]; CALCR-RAMP3, 10 uM) [%]","% Antagonist Activity (168 GPCRs [2]; CALCR-RAMP3, 10 uM) [%]",% Agonist Activity (168 GPCRs [3]; 1 uM) [%],% Antagonist Activity (168 GPCRs [3]; 1 uM) [%],% Agonist Activity (168 GPCRs [3]; 10 uM) [%],% Antagonist Activity (168 GPCRs [3]; 10 uM) [%],other results
"CNC(C)Cc1ccc2c(c1)OCO2 (centres unmarked) [MDMA, 3,4-Methylenedioxy methamphetamine, reference compound]",-0.1,14.8,-0.1,16.7,-3.5,-8.1,-2.4,6.8,-0.3,12.8,2.9,15.7,-18.3,-3.6,-1.4,-1.3,2.3,3.2,1.2,5.2,"% Agonist Activity (168 GPCRs [4]; Conc 1 uM): 6.6%; % Antagonist Activity (168 GPCRs [4]; Conc 1 uM): 11.5%; % Agonist Activity (168 GPCRs [4]; Conc 10 uM): 7.8%; % Antagonist Activity (168 GPCRs [4]; Conc 10 uM): 9.6%; % Agonist Activity (168 GPCRs [5]; GPR1, 1 uM): 0.7%; % Antagonist Activity (168 GPCRs [5]; GPR1, 1 uM): 7.6%; % Agonist Activity (168 GPCRs [5]; GPR1, 10 uM): 0.2%; % Antagonist Activity (168 GPCRs [5]; GPR1, 10 uM): 11.9%"
CNC(C)C(=O)c1ccc2c(c1)OCO2 (centres unmarked) [methylone],-0.5,12.3,0.1,3.9,-0.3,5.4,-0.2,-4.4,0.9,-10.6,1.6,-19.6,7.9,-8.9,7.1,-3.3,-1,-1.1,1.5,-2.4,"% Agonist Activity (168 GPCRs [4]; Conc 1 uM): -2.1%; % Antagonist Activity (168 GPCRs [4]; Conc 1 uM): 5.4%; % Agonist Activity (168 GPCRs [4]; Conc 10 uM): -2.7%; % Antagonist Activity (168 GPCRs [4]; Conc 10 uM): 1.8%; % Agonist Activity (168 GPCRs [5]; GPR1, 1 uM): -0.5%; % Antagonist Activity (168 GPCRs [5]; GPR1, 1 uM): 4.4%; % Agonist Activity (168 GPCRs [5]; GPR1, 10 uM): -0.7%; % Antagonist Activity (168 GPCRs [5]; GPR1, 10 uM): 7.4%"
